Measurements: patent US10125138B2, “Triazolotriazinone derivatives having activity a s herbicides” (Syngenta Participations AG, priority 2015, dated 2018)

Key:
Format in all cases: in vivo
Conditions in all cases: 1000 g/h, evaluated after 13 days, five point scale
[1] = tested on: Ipomoea hederacea (IPOHE); assay: Post-emergence glasshouse herbicide test, Ipomoea hederacea
[2] = tested on: Lolium perenne (LOLPE); assay: Pre-emergence glasshouse herbicide test, Lolium perenne
[3] = tested on: Lolium perenne (LOLPE); assay: Post-emergence glasshouse herbicide test, Lolium perenne
[4] = tested on: Solanum nigrum (SOLNI); assay: Pre-emergence glasshouse herbicide test, Solanum nigrum
Description: (§1) Seeds of a variety of test species are sown in standard soil in pots (Lolium perenne (LOLPE), Solanum nigrum (SOLNI), Amaranthus retoflexus (AMARE), Setaria faberi (SETFA), Echinochloa crus-galli (ECHCG), Ipomoea hederacea (IPOHE)). After cultivation for one day (pre-emergence) or after 8 days cultivation (post-emergence) under controlled conditions in a glasshouse (at 24/16° C., day/night; 14 hours light; 65% humidity), the plants are sprayed with an aqueous spray solution derived from the formulation of the technical active ingredient in acetone/water (50:50) solution containing 0.5% Tween 20 (polyoxyethelyene sorbitan monolaurate, CAS RN 9005-64-5). Compounds are applied at 1000 g/h. The test plants are then grown in a glasshouse under controlled conditions in a glasshouse (at 24/16° C., day/night; 14 hours light; 65% humidity) and watered twice daily. After 13 days for pre and post-emergence, the test is evaluated for the percentage damage caused to the plant. The biological activities are shown in the following table on a five point scale (5=80-100%; 4=60-79%; 3=40-59%; 2=20-39%; 1=0-19%).

[5] = tested on: Amaranthus retoflexus (AMARE); assay: Post-emergence glasshouse herbicide test, Amaranthus retoflexus
[6] = tested on: Solanum nigrum (SOLNI); assay: Post-emergence glasshouse herbicide test, Solanum nigrum
Description: as §1

[7] = tested on: Echinochloa crus-galli (ECHCG); assay: Pre-emergence glasshouse herbicide test, Echinochloa crus-galli
[8] = tested on: Setaria faberi (SETFA); assay: Pre-emergence glasshouse herbicide test, Setaria faberi
[9] = tested on: Amaranthus retoflexus (AMARE); assay: Pre-emergence glasshouse herbicide test, Amaranthus retoflexus
[10] = tested on: Ipomoea hederacea (IPOHE); assay: Pre-emergence glasshouse herbicide test, Ipomoea hederacea
[11] = tested on: Setaria faberi (SETFA); assay: Post-emergence glasshouse herbicide test, Setaria faberi
[12] = tested on: Echinochloa crus-galli (ECHCG); assay: Post-emergence glasshouse herbicide test, Echinochloa crus-galli

Structure (SMILES)	percentage damage caused to the plant, POST Application IPOHE [1]	percentage damage caused to the plant, PRE Application LOLPE [2]	percentage damage caused to the plant, POST Application LOLPE [3]	percentage damage caused to the plant, PRE Application SOLNI [4]	percentage damage caused to the plant, POST Application AMARE [5]	percentage damage caused to the plant, POST Application SOLNI [6]	percentage damage caused to the plant, PRE Application ECHCG [7]	percentage damage caused to the plant, PRE Application SETFA [8]	percentage damage caused to the plant, PRE Application AMARE [9]	percentage damage caused to the plant, PRE Application IPOHE [10]	percentage damage caused to the plant, POST Application SETFA [11]	percentage damage caused to the plant, POST Application ECHCG [12]
CCCCn1nnnc1NC(=O)c1nn2cnn(-c3ccc(F)cc3)c2nc1=O [Compound 1.039]	5 (5=80-100%)	5 (5=80-100%)	5 (5=80-100%)	5 (5=80-100%)	5 (5=80-100%)	5 (5=80-100%)	5 (5=80-100%)	5 (5=80-100%)	5 (5=80-100%)	4 (4=60-79%)	5 (5=80-100%)	5 (5=80-100%)
CCCCn1nnnc1NC(=O)c1nn2cnn(-c3ccc(OC)cc3)c2nc1=O [Compound 1.040]	5 (5=80-100%)	5 (5=80-100%)	5 (5=80-100%)	5 (5=80-100%)	4 (4=60-79%)	5 (5=80-100%)	5 (5=80-100%)	5 (5=80-100%)	3 (3=40-59%)	5 (5=80-100%)	4 (4=60-79%)	3 (3=40-59%)
CCn1nnnc1NC(=O)c1nn2cnn(-c3ccc(C(F)(F)F)cc3)c2nc1=O [Compound 1.042]	4 (4=60-79%)	4 (4=60-79%)	3 (3=40-59%)	5 (5=80-100%)	4 (4=60-79%)	5 (5=80-100%)	5 (5=80-100%)	5 (5=80-100%)	5 (5=80-100%)	4 (4=60-79%)	4 (4=60-79%)	3 (3=40-59%)
CCCn1nnnc1NC(=O)c1nn2cnn(-c3ccc(C(F)(F)F)cc3)c2nc1=O [Compound 1.043]	4 (4=60-79%)	3 (3=40-59%)	3 (3=40-59%)	5 (5=80-100%)	5 (5=80-100%)	5 (5=80-100%)	2 (2=20-39%)	5 (5=80-100%)	4 (4=60-79%)	3 (3=40-59%)	4 (4=60-79%)	1 (1=0-19%)
CCCCn1nnnc1NC(=O)c1nn2cnn(-c3ccc(C(F)(F)F)cc3)c2nc1=O [Compound 1.044]	5 (5=80-100%)	3 (3=40-59%)	3 (3=40-59%)	5 (5=80-100%)	4 (4=60-79%)	5 (5=80-100%)	2 (2=20-39%)	3 (3=40-59%)	3 (3=40-59%)	3 (3=40-59%)	3 (3=40-59%)	1 (1=0-19%)
